Assays:
MC1-R = MC1-R (Mus musculus, UniProt Q01727); assay: Competitive inhibition binding assay, 125I-NDP-alpha-MSH, B-16 mouse melanoma cell membranes; details: B-16 cells; read-out: Ki MC-1 B-16
hMC3-R = target: T1, hMC3-R (Homo sapiens, UniProt P41968); assay: Competitive inhibition binding assay, 125I-NDP-alpha-MSH, hMC3-R membranes
T1 construct: expressed in transfected cells

hMC5-R = target: T2, hMC5-R (Homo sapiens, UniProt P33032); assay: Competitive inhibition binding assay, 125I-NDP-alpha-MSH, hMC5-R membranes
T2 construct: expressed in transfected cells
T2 sequence (P33032 whole entry): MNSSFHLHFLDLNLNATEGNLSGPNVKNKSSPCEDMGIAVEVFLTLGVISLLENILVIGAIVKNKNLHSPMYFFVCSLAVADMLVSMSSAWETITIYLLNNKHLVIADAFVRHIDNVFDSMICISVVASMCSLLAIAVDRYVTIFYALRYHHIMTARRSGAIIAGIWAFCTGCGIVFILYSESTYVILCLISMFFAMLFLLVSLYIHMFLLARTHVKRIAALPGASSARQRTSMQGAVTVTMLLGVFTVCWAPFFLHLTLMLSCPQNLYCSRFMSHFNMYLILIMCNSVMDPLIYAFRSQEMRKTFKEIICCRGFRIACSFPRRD

[1] = Penile erection induction in male rats; format: in vivo, rat; details: male Sprague-Dawley rats; iv, varying quantities; 30 minutes observation; FIG. 2
Description: The ability of compounds to induce penile erection (PE) in male rats was evaluated with selected peptides. Male Sprague-Dawley rats weighing 200-250 g were kept on a 12 hour on/off light cycle with food and water ad libitum. All behavioral studies were performed between 10 a.m. and 5 p.m. Groups of 4-8 rats were treated with peptides at a variety of doses via intravenous (IV), subcutaneous (SC), intracerebroventricular (ICV), intraperitoneal (IP) injection or administered intranasally (IN) using a micropipetor to deliver 25 μL of solution into one nostril. Immediately after treatment, rats were placed into individual polystyrene cages (27 cm long, 16 cm wide, and 25 cm high) for behavioral observation.

[2] = Food intake and body weight change in male Sprague-Dawley rats; format: in vivo, rat; details: for average daily body weight gain / average daily body weight lost: saline animals gained 4 g
Description: Food intake and body weight change was evaluated for selected peptides. Male Sprague-Dawley rats weighing ˜300 g at the beginning of the experiment were kept on a 12 hour on/of light cycle. Lights out was adjusted to 12:00 p.m. to allow for dosing just prior to the start of their dark period. Rats (12/group) were fed powdered chow and water ad libitum. For 1 week before treatment, 24-hour food intake and body weight change was recorded to assess a baseline for the group during vehicle treatment. The rats were dosed ICV, IV, SC or IP on day 0 and food intake and body weight measured daily for 1 week. Animals were dosed once per week for up to 6 weeks and their food intake and daily weight changed compared to their baseline. FIGS. 3, 4 and 5 illustrate results of different peptides at different doses and by varying routes of administration.

[3] = Conditioned taste aversion in rats; format: in vivo, rat; details: IP 1500 μg/kg, saccharin water intake day 1 vs day 3, FIG. 6
Description: Conditioned taste aversion was evaluated in rats using selected peptides. Male Sprague-Dawley rats weighing ˜300 g were kept on a 12 hour on/of light cycle. Lights out was adjusted to 12:00 p.m. with food ad libitum. Animals were trained to be accustomed to 30 minutes of access to water per day. On day 1 of the experiment, rats were given 30 minutes of access to water containing 0.15% saccharin immediately prior to being dosed ICV, IV or IP with compound. On day 2 they were given plain water for the appointed time. On day 3 the rats were given saccharin-containing water again. The amount of fluid these animals consumed on day 1 and day 3 was compared. Reduced intake on day 3 indicates a conditioned taste aversion due to illness induced by drug treatment on day 1.

MC4-R [4] = target: T3, MC4-R (Homo sapiens, UniProt P32245); assay: Competitive inhibition binding assay, 125I-NDP-alpha-MSH, hMC4-R membranes; parameters: expressed in transfected cells
T3 sequence (P32245 whole entry): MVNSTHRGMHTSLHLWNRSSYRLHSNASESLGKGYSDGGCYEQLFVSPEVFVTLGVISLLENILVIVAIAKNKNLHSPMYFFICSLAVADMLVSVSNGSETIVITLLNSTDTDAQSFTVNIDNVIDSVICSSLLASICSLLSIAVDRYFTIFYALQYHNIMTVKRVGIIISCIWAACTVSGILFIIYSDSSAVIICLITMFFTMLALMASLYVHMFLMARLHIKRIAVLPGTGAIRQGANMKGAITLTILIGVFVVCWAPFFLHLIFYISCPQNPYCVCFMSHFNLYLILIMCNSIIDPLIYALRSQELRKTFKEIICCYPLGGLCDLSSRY

MC4-R [5] = target: T3, MC4-R; assay: Functional evaluation: intracellular cAMP accumulation in HEK-293 cells expressing MC4-R (agonist/antagonist status); format: cell-based; parameters: expressed in transfected cells; host or cells: HEK-293; details: with or without alpha-MSH, 1 hour at 37° C
Description: The Ki (nM) of certain peptides were determined, as was the agonist/antagonist status with respect to MC4-R. Functional evaluation of peptides at MC4-R was performed by measuring the accumulation of intracellular cAMP in HEK-293 cells expressing MC4-R. Antagonistic activity was determined by measuring the inhibition of α-MSH-induced cAMP levels following exposure to the compounds. Cells, suspended in Earle's Balanced Salt Solution containing 10 mM HEPES, pH 7.5, 5 mM MgCl2, 1 mM glutamine, 0.1% albumin and 0.6 mM 3-isobutyl-1-methyl-xanthine, a phosphodiesterase inhibitor, were plated in 96 well plates at a density of 0.5×10^5 cells per well. Cells were incubated with the test peptides in the presence or absence of α-MSH for 1 hour at 37° C. cAMP levels were measured by EIA (Amersham) in the cell lysates. Data analysis and EC50 values were determined using nonlinear regression analysis with Prism Graph-Pad software.

T1 sequence (P41968 whole entry): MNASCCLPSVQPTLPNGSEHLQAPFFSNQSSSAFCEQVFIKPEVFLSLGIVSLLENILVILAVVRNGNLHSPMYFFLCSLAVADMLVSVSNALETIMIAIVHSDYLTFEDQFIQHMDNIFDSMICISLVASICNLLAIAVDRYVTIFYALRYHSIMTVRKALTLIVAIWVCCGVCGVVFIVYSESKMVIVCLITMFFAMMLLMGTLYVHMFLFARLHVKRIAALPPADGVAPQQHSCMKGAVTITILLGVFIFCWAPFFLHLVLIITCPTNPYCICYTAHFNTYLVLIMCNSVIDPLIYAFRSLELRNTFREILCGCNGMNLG
Sequence of MC1-R (Q01727 whole entry): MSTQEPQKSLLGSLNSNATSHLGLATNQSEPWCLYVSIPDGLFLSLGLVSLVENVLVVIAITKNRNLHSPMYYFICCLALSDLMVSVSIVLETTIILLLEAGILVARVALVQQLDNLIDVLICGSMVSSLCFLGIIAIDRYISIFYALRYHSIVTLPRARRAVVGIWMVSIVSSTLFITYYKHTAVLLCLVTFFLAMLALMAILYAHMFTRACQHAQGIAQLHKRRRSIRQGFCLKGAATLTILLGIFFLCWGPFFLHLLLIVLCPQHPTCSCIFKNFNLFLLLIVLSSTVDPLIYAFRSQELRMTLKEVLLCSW

Ki (MC1-R): 795 nM | percent inhibition of 125I-NDP-alpha-MSH binding, MC3-R (hMC3-R; hMC3-R membranes, 0.4 nM 125I-NDP-alpha-MSH, mean of triplicate, peptide concentration not given): 94% | Ki (hMC3-R; membranes, read-out: Ki MC-3 Mem): 25 nM | percent inhibition of 125I-NDP-alpha-MSH binding, MC5-R (hMC5-R; hMC5-R membranes, 0.4 nM 125I-NDP-alpha-MSH, mean of triplicate, peptide concentration not given): 73% | Ki (hMC5-R; membranes, read-out: Ki MC-5 Mem): 175 nM | conditioned taste aversion response [3]: no conditioned taste aversion response | percent inhibition of 125I-NDP-alpha-MSH binding, MC4-R (MC4-R [4]; hMC4-R membranes, 0.4 nM 125I-NDP-alpha-MSH, mean of triplicate, peptide concentration not given): 99% | Ki (MC4-R [4]; membranes, read-out: Ki MC-4 Mem): 1 nM | HEK-293 (MC4-R) cells Classification (MC4-R [5]): Agonist
SMILES: N=C(N)NCCCC(NC(=O)C(Cc1ccc(Cl)cc1)NC(=O)C(COCc1ccccc1)NC(=O)CCCCCCN)C(=O)NC(Cc1c[nH]c2ccccc12)C(N)=O [7′-amino-heptanoyl-Ser(Bzl)-D-Phe(4-Cl)-Arg-Trp-NH2]
penile erection induction [1]: induced erections | average daily body weight gain ([2]; ICV 0.1 nmol): 3 g | average daily body weight lost ([2]; ICV 0.5 nmol): 1 g | average daily body weight lost ([2]; ICV 1.0 nmol): 3 g | time by which animals returned to baseline after dosing ([2]; ICV dosing, FIG. 4): ≤ 48 h | average daily body weight gain ([2]; IP 750 μg/kg): 4 g | average daily body weight gain ([2]; IP 1500 μg/kg): 2 g | average daily body weight lost ([2]; IP 3000 μg/kg): 1 g | conditioned taste aversion response ([3]; listed as 7′-amino-heptanoyl-Ser(Bzl)-D-Phe(4′-Cl)-Arg-Trp-NH2): did not induce a conditioned taste aversion response

— US7417027B2, “Linear and cyclic melanocortin receptor-specific peptides” (Palatin Technologies, Inc., priority 2001, dated 2008)
